SMILES strings stand for the structures.

This assay relates to Elongator complex protein 1 (ELP1, also referred to as IKBKAP). The assay is described as follows: IKBKAP-HTRF assay (IKBKAP protein in lysates of FD patient-derived fibroblasts). It counts as cell-based, human. The note with it: 48 hours incubation, 7-point concentration curve. A digest of the protocol:
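Sandwich HTRF with two labelled anti-IKAP antibodies (overnight, 4 °C) measured IKBKAP in lysates of FD patient fibroblasts. Cells were exposed to compound for 48 h at 37 °C (7-point curve, 3.16-fold steps, triplicates). EC2x is the dose doubling IKBKAP versus DMSO control; MFI is sample ΔF divided by vehicle ΔF.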
As for `N[C@@H](CF)Cc1sc2c(NCc3ccco3)cc(Cl)nc2c1Cl` [Compound 94, 2-[(2R)-2-amino-3-fluoropropyl]-3,5-dichloro-N-[(furan-2-yl)methyl]thieno[3,2-b]pyridin-7-amine], the “EC2x for IKBKAP protein expression (concentration producing two times the amount of IKBKAP protein vs DMSO vehicle control)” value is given as “***** (≤0.005 μM is indicated by five stars (*****))”; the “MFI (maximum fold increase in IKBKAP protein abundance relative to the vehicle control)” value is “**** (between >3.9 and ≤4.9 is indicated by four stars (****))”.
Take `Cc1c(C[C@@H](N)CCF)sc2c(NCc3ccco3)cc(Cl)nc12` [Compound 95, 2-[(2S)-2-amino-4-fluorobutyl]-5-chloro-N-[(furan-2-yl)methyl]-3-methylthieno[3,2-b]pyridin-7-amine]: the “EC2x for IKBKAP protein expression (concentration producing two times the amount of IKBKAP protein vs DMSO vehicle control)” value is “***** (≤0.005 μM is indicated by five stars (*****))” and the “MFI (maximum fold increase in IKBKAP protein abundance relative to the vehicle control)” value is “***** (>4.9 is indicated by five stars (*****))”.
For `C[C@H](N)Cc1sc2c(NCc3nccs3)cc(Cl)nc2c1C1CC1` [Compound 96, 2-[(2S)-2-aminopropyl]-5-chloro-3-cyclopropyl-N-[(1,3-thiazol-2-yl)methyl]thieno[3,2-b]pyridin-7-amine], the “EC2x for IKBKAP protein expression (concentration producing two times the amount of IKBKAP protein vs DMSO vehicle control)” value is “**** (between >0.005 μM and ≤0.02 μM is indicated by four stars (****))”; the “MFI (maximum fold increase in IKBKAP protein abundance relative to the vehicle control)” value is given as “***** (>4.9 is indicated by five stars (*****))”.
As for `N[C@@H](CCF)Cc1sc2c(NCc3ccco3)cc(Cl)nc2c1Br` [Compound 97, 2-[(2S)-2-amino-4-fluorobutyl]-3-bromo-5-chloro-N-[(furan-2-yl)methyl]thieno[3,2-b]pyridin-7-amine], the “EC2x for IKBKAP protein expression (concentration producing two times the amount of IKBKAP protein vs DMSO vehicle control)” value is reported as “***** (≤0.005 μM is indicated by five stars (*****))” and the “MFI (maximum fold increase in IKBKAP protein abundance relative to the vehicle control)” value was “***** (>4.9 is indicated by five stars (*****))”.
For the compound `N[C@@H](CCF)Cc1sc2c(NCc3cccs3)cc(Cl)nc2c1Cl` [Compound 98, 2-[(2S)-2-amino-4-fluorobutyl]-3,5-dichloro-N-[(thiophen-2-yl)methyl]thieno[3,2-b]pyridin-7-amine], the “EC2x for IKBKAP protein expression (concentration producing two times the amount of IKBKAP protein vs DMSO vehicle control)” value is on record as “***** (≤0.005 μM is indicated by five stars (*****))” and the “MFI (maximum fold increase in IKBKAP protein abundance relative to the vehicle control)” value was “***** (>4.9 is indicated by five stars (*****))”.
As for `Cc1c(C[C@@H](N)CCF)sc2c(NCc3nccs3)cc(Cl)nc12` [Compound 99, 2-[(2S)-2-amino-4-fluorobutyl]-5-chloro-3-methyl-N-[(1,3-thiazol-2-yl)methyl]thieno[3,2-b]pyridin-7-amine], the “EC2x for IKBKAP protein expression (concentration producing two times the amount of IKBKAP protein vs DMSO vehicle control)” value is “***** (≤0.005 μM is indicated by five stars (*****))” and the “MFI (maximum fold increase in IKBKAP protein abundance relative to the vehicle control)” value was “***** (>4.9 is indicated by five stars (*****))”.
In the case of `N[C@@H](CCO)Cc1sc2c(NCc3ccccc3F)cc(Cl)nc2c1Br` [Compound 100, (3S)-3-amino-4-(3-bromo-5-chloro-7-{[(2-fluorophenyl)methyl]amino}thieno[3,2-b]pyridin-2-yl)butan-1-ol], the “EC2x for IKBKAP protein expression (concentration producing two times the amount of IKBKAP protein vs DMSO vehicle control)” value is “***** (≤0.005 μM is indicated by five stars (*****))” and the “MFI (maximum fold increase in IKBKAP protein abundance relative to the vehicle control)” value is “***** (>4.9 is indicated by five stars (*****))”.
In the same order, the values of `C[C@H](N)Cc1sc2c(NCc3cccs3)cc(C#N)nc2c1Br` [Compound 101, 2-[(2S)-2-aminopropyl]-3-bromo-7-{[(thiophen-2-yl)methyl]amino}thieno[3,2-b]pyridine-5-carbonitrile] are “***** (≤0.005 μM is indicated by five stars (*****))” and “***** (>4.9 is indicated by five stars (*****))”.
With `C[C@H](N)Cc1sc2c(NCc3cccs3)cc(C#N)nc2c1C#N` [Compound 102, 2-[(2S)-2-aminopropyl]-7-{[(thiophen-2-yl)methyl]amino}thieno[3,2-b]pyridine-3,5-dicarbonitrile], the “EC2x for IKBKAP protein expression (concentration producing two times the amount of IKBKAP protein vs DMSO vehicle control)” value is reported as “***** (≤0.005 μM is indicated by five stars (*****))” and the “MFI (maximum fold increase in IKBKAP protein abundance relative to the vehicle control)” value is given as “***** (>4.9 is indicated by five stars (*****))”.
With `N#CC[C@H](N)Cc1sc2c(NCc3ccco3)cc(Cl)nc2c1Br` [Compound 103, (3S)-3-amino-4-(3-bromo-5-chloro-7-{[(furan-2-yl)methyl]amino}thieno[3,2-b]pyridin-2-yl)butanenitrile], the “EC2x for IKBKAP protein expression (concentration producing two times the amount of IKBKAP protein vs DMSO vehicle control)” value is “**** (between >0.005 μM and ≤0.02 μM is indicated by four stars (****))”; the “MFI (maximum fold increase in IKBKAP protein abundance relative to the vehicle control)” value is “**** (between >3.9 and ≤4.9 is indicated by four stars (****))”.
For `CSC[C@H](N)Cc1sc2c(NCc3ccco3)cc(Cl)nc2c1C` [Compound 104, 2-[(2R)-2-amino-3-(methylsulfanyl)propyl]-5-chloro-N-[(furan-2-yl)methyl]-3-methylthieno[3,2-b]pyridin-7-amine], the “EC2x for IKBKAP protein expression (concentration producing two times the amount of IKBKAP protein vs DMSO vehicle control)” value is on record as “***** (≤0.005 μM is indicated by five stars (*****))” and the “MFI (maximum fold increase in IKBKAP protein abundance relative to the vehicle control)” value is “***** (>4.9 is indicated by five stars (*****))”.
Taken in the same sequence, the figures for `Cc1c(C[C@@H](N)CC#N)sc2c(NCc3cccs3)cc(Cl)nc12` [Compound 105, (3S)-3-amino-4-(5-chloro-3-methyl-7-{[(thiophen-2-yl)methyl]amino}thieno[3,2-b]pyridin-2-yl)butanenitrile] were “***** (≤0.005 μM is indicated by five stars (*****))” and “***** (>4.9 is indicated by five stars (*****))”.
For the compound `N#CC[C@H](N)Cc1sc2c(NCc3cccs3)cc(Cl)nc2c1Cl` [Compound 106, (3S)-3-amino-4-(3,5-dichloro-7-{[(thiophen-2-yl)methyl]amino}thieno[3,2-b]pyridin-2-yl)butanenitrile], the “EC2x for IKBKAP protein expression (concentration producing two times the amount of IKBKAP protein vs DMSO vehicle control)” value is listed as “***** (≤0.005 μM is indicated by five stars (*****))” and the “MFI (maximum fold increase in IKBKAP protein abundance relative to the vehicle control)” value is “***** (>4.9 is indicated by five stars (*****))”.
Taken in the same sequence, the figures for `N[C@H](Cc1sc2c(NCc3cccs3)cc(Cl)nc2c1Br)CC(F)F` [Compound 107, 2-[(2S)-2-amino-4,4-difluorobutyl]-3-bromo-5-chloro-N-[(thiophen-2-yl)methyl]thieno[3,2-b]pyridin-7-amine] were “***** (≤0.005 μM is indicated by five stars (*****))” and “***** (>4.9 is indicated by five stars (*****))”.
As to `Cc1c(C[C@@H](N)CS(C)(=O)=O)sc2c(NCc3ccco3)cc(Cl)nc12` [Compound 108, 2-[(2R)-2-amino-3-(methanesulfonyl)propyl]-5-chloro-N-[(furan-2-yl)methyl]-3-methylthieno[3,2-b]pyridin-7-amine], the “EC2x for IKBKAP protein expression (concentration producing two times the amount of IKBKAP protein vs DMSO vehicle control)” value was “**** (between >0.005 μM and ≤0.02 μM is indicated by four stars (****))”; the “MFI (maximum fold increase in IKBKAP protein abundance relative to the vehicle control)” value is “***** (>4.9 is indicated by five stars (*****))”.
`C[C@H](N)Cc1sc2c(NCc3ccco3)cc(Cl)nc2c1C#N` [Compound 109, 2-[(2S)-2-aminopropyl]-5-chloro-7-{[(furan-2-yl)methyl]amino}thieno[3,2-b]pyridine-3-carbonitrile]: the “EC2x for IKBKAP protein expression (concentration producing two times the amount of IKBKAP protein vs DMSO vehicle control)” value is recorded as “***** (≤0.005 μM is indicated by five stars (*****))” and the “MFI (maximum fold increase in IKBKAP protein abundance relative to the vehicle control)” value is listed as “***** (>4.9 is indicated by five stars (*****))”.
Consider `C[C@H](N)Cc1sc2c(NCc3cccs3)cc(Cl)nc2c1C#N` [Compound 110, 2-[(2S)-2-aminopropyl]-5-chloro-7-{[(thiophen-2-yl)methyl]amino}thieno[3,2-b]pyridine-3-carbonitrile], for which the “EC2x for IKBKAP protein expression (concentration producing two times the amount of IKBKAP protein vs DMSO vehicle control)” value is on record as “***** (≤0.005 μM is indicated by five stars (*****))”; the “MFI (maximum fold increase in IKBKAP protein abundance relative to the vehicle control)” value is “**** (between >3.9 and ≤4.9 is indicated by four stars (****))”.
Regarding `Cc1c(C[C@@H](N)CC#N)sc2c(NCc3ccco3)cc(Cl)nc12` [Compound 111, (3S)-3-amino-4-(5-chloro-7-{[(furan-2-yl)methyl]amino}-3-methylthieno[3,2-b]pyridin-2-yl)butanenitrile], the “EC2x for IKBKAP protein expression (concentration producing two times the amount of IKBKAP protein vs DMSO vehicle control)” value was “**** (between >0.005 μM and ≤0.02 μM is indicated by four stars (****))”; the “MFI (maximum fold increase in IKBKAP protein abundance relative to the vehicle control)” value is “***** (>4.9 is indicated by five stars (*****))”.
On to `C[C@H](N)Cc1sc2c(NCc3cccs3)cc(C#N)nc2c1Cl` [Compound 112, 2-[(2S)-2-aminopropyl]-3-chloro-7-{[(thiophen-2-yl)methyl]amino}thieno[3,2-b]pyridine-5-carbonitrile], for which the “EC2x for IKBKAP protein expression (concentration producing two times the amount of IKBKAP protein vs DMSO vehicle control)” value is given as “***** (≤0.005 μM is indicated by five stars (*****))” and the “MFI (maximum fold increase in IKBKAP protein abundance relative to the vehicle control)” value is reported as “***** (>4.9 is indicated by five stars (*****))”.
Consider `CS(=O)(=O)C[C@H](N)Cc1sc2c(NCc3ccco3)cc(Cl)nc2c1Cl` [Compound 113, 2-[(2R)-2-amino-3-(methanesulfonyl)propyl]-3,5-dichloro-N-[(furan-2-yl)methyl]thieno[3,2-b]pyridin-7-amine], for which the “EC2x for IKBKAP protein expression (concentration producing two times the amount of IKBKAP protein vs DMSO vehicle control)” value was “**** (between >0.005 μM and ≤0.02 μM is indicated by four stars (****))”; the “MFI (maximum fold increase in IKBKAP protein abundance relative to the vehicle control)” value is recorded as “***** (>4.9 is indicated by five stars (*****))”.
